A word on the fraction unbound: it is the share of the substance not bound to proteins or other matrix. High values mean weak binding, low ones extensive binding. For orientation: logD means the decadic logarithm of the distribution of all forms, ionised or not, between an organic phase and buffer at a given pH. Read a high logD as higher lipophilicity.

The values that follow come from ChEMBL document CHEMBL3301361, “Experimental in vitro DMPK and physicochemical data on a set of publicly disclosed compounds”.

Data set [1] in a line: in vitro. Conditions: SD, HW or BN, rat, plasma.
Data set [2] in a line: in vitro. Conditions: human, plasma.
A further data set is described as follows: physchem. Conditions: octan-1-ol/water.

Structures are written as SMILES. Structures can show the parent of a compound that is named as a salt.

Consider `O=C(NCc1ccccn1)c1cc(-c2ccccc2)nc2ccccc12`, for which the fraction unbound at 5 h was 0.02 in “in vitro [1]” and 0.013 in the data set “in vitro [2]” (PPB).
As for `CC(C)(Oc1ccc(Cl)cc1)C(=O)N1CCN(c2ccccn2)CC1`, the fraction unbound at 5 h is 0.0092 in “in vitro [1]” and 0.0077 in the data set “in vitro [2]” (PPB).
As to `Cc1ccc(NC(=O)Nc2nnc(-c3ccncc3)s2)cc1`, the fraction unbound at 5 h is 0.0064 in the data set “in vitro [1]” and 0.0061 in “in vitro [2]” (PPB).
With `Cc1cc(I)cc2c1NC(C(=O)O)C1CC=CC21` (stereo not drawn), the fraction unbound at 5 h in “in vitro [1]” is 0.007; in the data set “in vitro [2]” (PPB), 0.002.
For `COc1ccc2c(c1)C(=O)C(=O)N2CC1COc2ccccc2O1` (stereo not drawn), the fraction unbound at 5 h in the data set “in vitro [1]” was 0.0059; in the data set “in vitro [2]” (PPB), 0.0066.
The like results for `Cc1nc2ccc(NS(=O)(=O)c3ccc4c(c3)OCCO4)cc2s1` were, in that order, 0.0067 and 0.0033.
As to `Cc1onc(-c2c(Cl)cccc2Cl)c1NC(=O)OCc1c(F)cccc1Cl`, the fraction unbound at 5 h in “in vitro [1]” is 0.003; in “in vitro [2]” (PPB), 0.002.
`Cc1onc(-c2c(Cl)cccc2Cl)c1CC(=O)NCc1ccc(OCC(F)(F)F)nc1`: the unbound share (fraction unbound) at 5 h in “in vitro [1]” is 0.0457; in “in vitro [2]” (PPB), 0.009.
The like results for `CC(C)(C)OC(=O)NC[C@H]1CC[C@H](CNC(=O)c2cc(-c3ccccc3)nc3ccccc23)CC1` were, in that order, 0.005 and 0.0008.
On to `COc1cccc2c1c(NS(=O)(=O)c1ccc(Cl)s1)nn2Cc1cccc(CNC(C)=O)c1`, for which the free fraction (fraction unbound) at 5 h in the data set “in vitro [1]” is 0.0028; in the data set “in vitro [2]” (PPB), 0.0066.
On to `CC(C)(C)C(NC(=O)c1ccccc1)C(=O)c1ccc(Cl)cc1` (stereo not drawn), for which the fraction unbound at 5 h in “in vitro [1]” was 0.0081; in the data set “in vitro [2]” (PPB), 0.006.
The like results for `COc1ncc(-c2ccccc2C(F)(F)CNC(=O)c2ccc(COCC(F)(F)F)nc2)cn1` were, in that order, 0.129 and 0.0099.
Consider `COc1ncc(-c2c(C)ccc(F)c2CCNC(=O)c2ccc(OCC(F)(F)F)nc2)cn1`, for which the values for the fraction unbound at 5 h in “in vitro [1]” and in “in vitro [2]” (PPB) were 0.0437 and 0.002, respectively.
Regarding `CC(Cc1ccccn1)N1C(=O)c2ccccc2C1C(=O)NCc1ccc(OC(F)(F)F)cc1` (stereo not drawn), the results for the fraction unbound at 5 h in “in vitro [1]” and in the data set “in vitro [2]” (PPB) were 0.0366 and 0.0111, respectively.
The like results for `CC1CN(c2cc(=O)[nH]c(NCc3cccc4ccccc34)n2)CCO1` (stereo not drawn) were, in that order, 0.024 and 0.013.
In the case of `Cc1nc(C)c(-c2ccc([C@H]3CC[C@H](CC(N)=O)CC3)cc2)nc1C(N)=O`, the values for the fraction unbound at 5 h in the data set “in vitro [1]” and in “in vitro [2]” (PPB) were 0.0556 and 0.129, respectively. Moreover, the logD in the data set “physchem” (pH 7.4, LogD7.4) was found to be 2.7.
As to `CCC[C@H](c1ccc(C(=O)O)c(Oc2cccc(Cl)c2)c1)N1CCC[C@H](n2cc(C)c(=O)[nH]c2=O)C1`, the fraction unbound at 5 h in “in vitro [1]” was 0.016; in the data set “in vitro [2]” (PPB), 0.0119.
Turning to `CCC[C@@H](c1ccc(C(=O)O)c(Oc2cccc(Cl)c2)c1)N1CCC[C@H](n2cc(C)c(=O)[nH]c2=O)C1`, the fraction unbound at 5 h in “in vitro [1]” is 0.0179; in the data set “in vitro [2]” (PPB) it was 0.007.
Consider `C[C@@H]1CN(c2ccc3c(n2)NC(=O)CO3)[C@H](c2ccccc2)CO1`, for which the unbound share (fraction unbound) at 5 h in “in vitro [1]” was 0.0928; in “in vitro [2]” (PPB), 0.0633. For the same compound, the logD in the data set “physchem” (pH 7.4, LogD7.4) stood at 2.75.
For `Cc1ccc(Sc2ccccc2CN(C)C)c(N)c1`, the fraction unbound at 5 h in the data set “in vitro [1]” is 0.0928; in the data set “in vitro [2]” (PPB), 0.11. Also, in “physchem” (pH 7.4, LogD7.4), the logD worked out at 2.6.
Turning to `N#Cc1cc(S(=O)(=O)Nc2ncns2)ccc1Oc1ccc(C(F)(F)F)cc1-c1ccnnc1`, the fraction unbound at 5 h in the data set “in vitro [1]” is 0.0209; in the data set “in vitro [2]” (PPB), 0.0059.
`N#Cc1cc(S(=O)(=O)Nc2ncc(Cl)s2)ccc1Oc1ccc(Cl)cc1-c1ccnn1C1CNC1`: the fraction unbound at 5 h is 0.0142 in “in vitro [1]” and 0.0081 in “in vitro [2]” (PPB).
The like results for `CC(C)(C)OC(=O)N[C@H](Cc1ccccc1C(F)(F)F)C(=O)NCc1nc2cccnc2n1Cc1ccccc1` were, in that order, 0.002 and 0.0111.
In the case of `CC(C)c1noc(C2CCN(c3ncnc(Nc4ccc(S(C)(=O)=O)cc4F)c3[N+](=O)[O-])CC2)n1`, the fraction unbound at 5 h in the data set “in vitro [1]” was 0.016; in the data set “in vitro [2]” (PPB) it was 0.0099.
In the case of `c1ccc2c(c1)CCC[C@H]2Nc1nc2ccccc2[nH]1`, the fraction unbound at 5 h in “in vitro [1]” is 0.0437; in the data set “in vitro [2]” (PPB), 0.007.
As for `Cc1ccccc1CN1CCC(N2CCC(n3c(=O)[nH]c4ccccc43)CC2)CC1`, the results for the fraction unbound at 5 h in the data set “in vitro [1]” and in “in vitro [2]” were 0.299 and 0.355, respectively. The same compound displayed a logD in the data set “physchem” (pH 7.4) of 2.68.
For the compound `Cc1cc(Oc2ncc(C(F)(F)F)cc2Cl)ccc1CC1SC(=O)NC1=O` (stereo not drawn), the results for the fraction unbound at 5 h in “in vitro [1]” and in “in vitro [2]” (PPB) were 0.0021 and 0.0006, respectively.
For the compound `O=S(=O)(N[C@H](CO)C(C(F)(F)F)C(F)(F)F)c1ccc(Cl)s1` [BEGACESTAT], the fraction unbound at 5 h is 0.11 in the data set “in vitro [1]” and 0.0909 in “in vitro [2]” (PPB).
With `CCCCc1nc(Cl)c(C(=O)O)n1Cc1ccc(-c2ccccc2-c2nn[nH]n2)cc1` [CARBOXYLIC ACID METABOLITE], the fraction unbound at 5 h in the data set “in vitro [1]” is 0.0022; in the data set “in vitro [2]” (PPB), 0.0049.
In the case of `CCOC(=O)Nc1ccc(NCc2ccc(F)cc2)cc1N` [EZOGABINE], the unbound share (fraction unbound) at 5 h in the data set “in vitro [1]” was 0.201; in “in vitro [2]”, 0.139.
For `COCCCC/C(=N\OCCN)c1ccc(C(F)(F)F)cc1` [FLUVOXAMINE MALEATE], the fraction unbound at 5 h in “in vitro [1]” is 0.224; in the data set “in vitro [2]” (PPB), 0.266.
For the compound `C[N+](C)(Cc1ccc(NC(=O)c2ccc(Cl)c(Cl)c2)cc1)C1CCOCC1` [JNJ-17166864 CATION], the fraction unbound at 5 h in “in vitro [1]” is 0.387; in the data set “in vitro [2]” (PPB), 0.179.
For `CNC1(c2ccccc2Cl)CCCCC1=O` (stereo not drawn) [KETAMINE], the fraction unbound at 5 h in “in vitro [1]” is 0.552; in “in vitro [2]”, 0.58.
On to `CC(C)NC[C@H](O)COc1cccc2ccccc12` [LEVOPROPRANOLOL], for which the fraction unbound at 5 h in the data set “in vitro [1]” is 0.204; in “in vitro [2]”, 0.139.
Turning to `Cc1c(F)cc(C(=O)NC2CC2)cc1-c1ccc(C(=O)NCC(C)(C)C)cn1` [LOSMAPIMOD], the fraction unbound at 5 h in “in vitro [1]” is 0.0818; in the data set “in vitro [2]” (PPB), 0.119.
For `O=C(O)c1cccnc1` [NIACIN], the fraction unbound at 5 h in “in vitro [1]” was 0.546; in the data set “in vitro [2]” (PPB), 0.552.
`CNc1ccc(-c2nc3ccc(O)cc3s2)cc1` [PITTSBURGH COMPOUND B UNLABELLED]: the fraction unbound at 5 h in the data set “in vitro [1]” was 0.0183; in “in vitro [2]” (PPB) it was 0.0111.
As to `O=C(O)c1c(O)c(Cc2ccc(Cl)cc2)nc2c3c(ccc12)CCCC3` [PSI-697], the values for the fraction unbound at 5 h in the data set “in vitro [1]” and in “in vitro [2]” (PPB) were 0.0014 and 0.0007, respectively.
The like results for `CCN1CCC[C@H]1CNC(=O)c1c(O)c(Cl)cc(Cl)c1OC` [RACLOPRIDE] were, in that order, 0.557 and 0.11.
`COc1ccc(C2CNC(=O)C2)cc1OC1CCCC1` (stereo not drawn) [ROLIPRAM]: the free fraction (fraction unbound) at 5 h in “in vitro [1]” is 0.329; in the data set “in vitro [2]” (PPB), 0.173.
As for `O=C(CC(c1ccccc1)c1ccccc1)N1CCN(C(c2ccccc2)c2ccccc2)CC1` [Z160], the fraction unbound at 5 h in “in vitro [1]” amounted to 0.5; in “in vitro [2]” (PPB), 0.001.
For the compound `O=C1Cc2cc(CCN3CCN(c4nsc5ccccc45)CC3)c(Cl)cc2N1` [ZIPRASIDONE], the fraction unbound at 5 h was 0.003 in “in vitro [1]” and 0.001 in “in vitro [2]” (PPB).
